Consider one compound from ChEMBL document CHEMBL1147374, “Chemical constituents of Aristolochia rigida and mutagenic activity of aristolochic acid IV” (J Nat Prod, 1993).

Common to all, as to details: salmonella enterica subsp. enterica serovar typhimurium
For data set [1], the system named is Salmonella typhimurium. Put plainly: Mutagenic activity in Salmonella Typhimurium TA100 assessed as increase in number of histidine revertants up to 100 ug/plate after 48 hrs in presence of rat S9 liver homogenate by Ames test. The format is toxicity, organism-based, Liver S9 fraction.
Data set [2] has as its system Salmonella typhimurium. Put plainly: Toxicity in Salmonella Typhimurium TA100 at 500 ug/plate. The format is organism-based.
The subject of data set [3] is Salmonella typhimurium. The data set is described as follows: Mutagenic activity in Salmonella typhimurium TA100 assessed as number of histidine revertants after 48 hrs in presence of phenobarbital treated rat S9 liver homogenate by Ames test. Type of data set: toxicity, organism-based, Liver S9 fraction. On the technique in general: In the Ames test, an excess of revertant colonies over the control signals mutagenicity.

The test system of data set [4] is Salmonella typhimurium. Put plainly: Toxicity in Salmonella Typhimurium TA100 up to 100 ug/plate. The format is organism-based.

For `COc1cc(OC)c2cc([N+](=O)[O-])c3c(C(=O)O)cc4c(c3c2c1)OCO4` [ARISTOLOCHIC ACID IV], the Activity entry is listed as “Active” in the data set with Salmonella typhimurium [1], “Toxic” in the data set on Salmonella typhimurium [2], “Dose-dependent effect” in the data set with Salmonella typhimurium [3] and “Non-toxic” in the data set on Salmonella typhimurium [4].
